According to PMC4019751 (Bioorganic & medicinal chemistry letters, 2014):

Experiments:
[1] = target: T1, human sEH (Homo sapiens, UniProt P34913); assay: FRET competitive displacement assay; format: binding; conditions: for residence time: read-out: t1/2 (residence time on the enzyme)
T1 sequence (P34913 1-555): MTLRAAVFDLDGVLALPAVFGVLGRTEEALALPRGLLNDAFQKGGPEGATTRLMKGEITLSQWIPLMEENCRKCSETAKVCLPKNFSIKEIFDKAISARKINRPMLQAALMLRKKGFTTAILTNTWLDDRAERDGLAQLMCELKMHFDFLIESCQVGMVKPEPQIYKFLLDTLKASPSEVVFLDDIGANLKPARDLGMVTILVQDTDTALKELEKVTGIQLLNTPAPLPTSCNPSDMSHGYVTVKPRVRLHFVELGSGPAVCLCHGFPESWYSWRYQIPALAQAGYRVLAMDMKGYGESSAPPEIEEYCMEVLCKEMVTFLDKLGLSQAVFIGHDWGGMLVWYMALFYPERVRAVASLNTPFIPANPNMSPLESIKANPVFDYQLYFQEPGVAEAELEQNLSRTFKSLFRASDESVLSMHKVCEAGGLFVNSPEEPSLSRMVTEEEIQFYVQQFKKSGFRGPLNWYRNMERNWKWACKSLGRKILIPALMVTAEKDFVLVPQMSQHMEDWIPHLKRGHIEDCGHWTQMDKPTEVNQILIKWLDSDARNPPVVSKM

[2] = target: T2, recombinant purified human sEH (Homo sapiens, UniProt P34913); assay: sEH inhibition, kinetic fluorescent assay with CMNPC substrate; format: biochemical
T2 sequence (P34913 1-555): T1 sequence (P34913 1-555)

| koff [1] | residence time [1] | inhibition potency in words [2] | SMILES |
| --- | --- | --- | --- |
| 0.00461 s⁻¹ | 2.5 min | – | O=C(NCCCCCCCCNC(=O)NC1C2CC3CC(C2)CC1C3)NC1C2CC3CC(C2)CC1C3 (centres unmarked) [3d] |
| 0.00142 s⁻¹ | 8 min | – | CC(NC(=O)NCCCCNC(=O)NC(C)C12CC3CC(CC(C3)C1)C2)C12CC3CC(CC(C3)C1)C2 (centres unmarked) [2b] |
| – | – | poor potency | O=C(NCC12CC3CC(CC(C3)C1)C2)Nc1ccc(NC(=O)NCC23CC4CC(CC(C4)C2)C3)cc1 [1e] |
| 0.00116 s⁻¹ | 10 min | – | O=C(NCCCCCCNC(=O)NCC12CC3CC(CC(C3)C1)C2)NCC12CC3CC(CC(C3)C1)C2 [1c] |
| – | – | poor potency | O=C(NCC1CCN(C(=O)NCC23CC4CC(CC(C4)C2)C3)CC1)NCC12CC3CC(CC(C3)C1)C2 [1f] |
